Laboratory results reported in patent publication US12617831B2 (UNIVERSITE D'ANGERS, priority 2019, dated 2026).

Columns and labels:
[1] = system: ovariectomy-induced bone loss in mice; experiment: Cortical bone strength, 3-point bending at the midshaft femur, ovariectomized mice; type: in vivo
Procedure: At 16 weeks of age, ALZET osmotic pumps (model number 2006, Durect Corp., Cupertino, CA) filled with the below saline or peptide were implanted subcutaneously between the two scapula under general anesthesia in 32 mice. Successful filling of pumps was verified by weighting the pump before and after filling. At 20 weeks of age, ALZET osmotic pumps were replaced by similar pumps to ensure delivery for four new weeks. […] This dose and regimen of zoledronic acid was equivalent to the 5 mg infusion approved for the treatment of post-menopausal osteoporosis in humans. At necropsy, femurs and second lumbar vertebras (L2) were cleaned of soft tissue and immediately frozen in a saline-soaked gauze at −20° C. Three-point-bending experiments were performed on femurs after thawing bones at 4° C. overnight. Femurs were loaded to failure in 3-point bending at 2 mm/min using a servohydraulic materials testing system (Instron 5942, Instron, Elancourt, France). The lower span length was of 10 mm. Femurs were oriented so the anterior quadrant was facing down and subjected to tensile loads. Load and displacement of the upper crosshead, which were digitally recorded at a sampling rate of 100 Hz, were measured using a 500 N load cell (Instron). Stiffness, ultimate load, yield load, post-yield displacement (PYD), and work-to-fracture were calculated from the load-displacement curves. PYD was defined as the displacement at failure minus the displacement at yield.

[2] = system: ovariectomy-induced bone loss in mice; experiment: Bone matrix composition by FTIRI at the femur midshaft, ovariectomized mice; type: in vivo; settings: OVX mice, cortical bone femur, vs vehicle
Procedure: At 16 weeks of age, ALZET osmotic pumps (model number 2006, Durect Corp., Cupertino, CA) filled with the below saline or peptide were implanted subcutaneously between the two scapula under general anesthesia in 32 mice. Successful filling of pumps was verified by weighting the pump before and after filling. At 20 weeks of age, ALZET osmotic pumps were replaced by similar pumps to ensure delivery for four new weeks. […] This dose and regimen of zoledronic acid was equivalent to the 5 mg infusion approved for the treatment of post-menopausal osteoporosis in humans. After three-point bending experiments, femurs were embedded undecalcified in pMMA at 4° C. One-micrometer cross-sectional sections of the midshaft femur were sandwiched between BaF2 optical windows and Fourier transform infrared imaging (FTIRI) assessment was performed in the posterior quadrant. FTIRI was performed with a vertex 70 spectrometer (Bruker, Ettlingen, Germany) interfaced with a Hyperion 3000 microscope and a focal plane array detector (64×64 pixels) covering a field of view of 180×180 μm. Nine field-of-view were stitched together to allow sufficient bone to be analyzed. Sections were scanned with a spectral resolution of 8 cm^-1 (spectral region 900-2000 cm^-1). Each spectrum was corrected for Mie scattering with the […]5 algorithm (kind gift of Prof Peter Gardner, University of Manchester, UK) prior to be subjected to pMMA subtraction. Evaluation of spectral images was done with a lab-made routine script in Matlab R2016b (The Mathworks, Natick, MA) as described in Aguado et al. (2017) Calcif Tissue Int 100:332-340. FTIR bone parameters ([…] (2012) Methods Mol Biol 816:517-525) calculated were: (1) phosphate/amide ratio (area of v1, v3 phosphate/area amide1); (2) acid phosphate content (intensity ratio 1127 cm^-1/1096 cm^-1) (Spevak et al. (2013) Calcif Tissue Int 92:418-428); (3) mineral crystallinity (intensity ratio 1030 cm^-1/1020 cm^-1), reflecting crystal size and perfection; […] (2001) J Bone Miner Res 16:893-900). For each of the compositional parameters, the mean and full width at half maximum of the pixel distribution (excluding the zero background values) were computed and represented as mean and heterogeneity.

[3] = system: Murine Raw 264.7 cells; experiment: Raw264.7 cell-mediated osteoclast formation in vitro (Example 2); type: cell-based; settings: 10 ng/ml soluble murine RANKL, 110 h, TRAcP staining
Text: TRAcP positive cells, with more than three nuclei, were identified as osteoclasts.

[4] = system: MC3T3-E1 cells; type: cell-based, murine
Procedure: Increased plasma membrane permeability that occurs during cell death can be visualised using trypan blue, a dye that is excluded from living cells and is incorporated into the cells when they are undergoing death (Bellido and Plotkin (2008) Methods Mol. Biol. 455:51-75).
After 24 h, the cell culture supernatant containing the floating cells was collected and put in previously labelled eppendorf tubes. Each well was washed in PBS before trypsin was added to detach adherent cells. The mixture containing detached adherent cells was collected and pooled in the eppendorf containing the cell culture supernatant. Cells were spun at 1,500 rotation per minute (rpm) for 10 minutes, the supernatant was removed carefully and cells were incubated with trypan blue 0.04% and transferred into a haemocytometer. Living (clear) and dead (blue) cells were counted under light microscope examination and the percentage of dead cells was determined for each condition as follow: % of dead cells=100×(Number of dead cells)/(Number of dead cells+Number of living cells)

[5] = biological target: T1, human GIPr (Homo sapiens, UniProt P48546); experiment: Cyclic AMP assay (FRET, H74 probe), HEK-293 transfected with human GIPr; type: cell-based; settings: HEK 293 transfected only with human GIPr, 10^-9 M, 30 min (FIG. 16)
T1 construct: host or cells: HEK-293
T1 sequence (P48546 22-466): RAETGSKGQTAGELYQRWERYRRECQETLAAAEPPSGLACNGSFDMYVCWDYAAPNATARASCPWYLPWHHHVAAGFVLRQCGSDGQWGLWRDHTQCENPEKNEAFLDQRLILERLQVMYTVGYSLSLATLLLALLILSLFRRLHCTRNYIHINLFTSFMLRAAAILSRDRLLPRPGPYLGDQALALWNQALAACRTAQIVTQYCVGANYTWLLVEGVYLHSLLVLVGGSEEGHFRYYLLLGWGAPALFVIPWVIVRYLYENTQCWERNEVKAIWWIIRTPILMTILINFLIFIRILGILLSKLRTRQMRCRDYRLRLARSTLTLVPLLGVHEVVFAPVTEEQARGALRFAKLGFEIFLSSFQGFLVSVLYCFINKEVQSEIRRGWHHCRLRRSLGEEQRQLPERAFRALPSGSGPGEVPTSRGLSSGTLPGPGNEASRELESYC
Procedure: Human HEK-293 cells were plated at a density of 2×10^5 cells/cm^2 in 4 well microslides (ibidi GmbH, Martinsried, Germany). […] Jalink (Netherland Cancer Institute, Amsterdam, Netherland). […] The image acquisition was performed with a 63 X, 1.4 N.A. oil immersion objective and a Hybrid® detector (Leica) and images were collected after 30 minutes. Donor excitation was made with a 458 nm Ar laser, donor emission was collected between 460-505 nm and acceptor emission between 520-600 nm by setting the SP8 spectrometer accordingly. FRET was expressed as the ratio between donor and acceptor signals.

[6] = OVX mice, 100 nmoles/kg/day, 8 weeks, vs vehicle

| Compound | augmentation in work-to-fracture [1, 6] [%] | increase in post-yield displacement [1, 6] [%] | increase in ultimate displacement [1, 6] [%] | augmentation of acid phosphate content heterogeneity ([2]; 100 nmoles/kg/day) [%] | IC50 [3] [nM] | increase in work-to-fracture ([1]; OVX mice, 25 nmoles/kg/day, 8 weeks, vs vehicle) [%] | increase in post-yield displacement ([1]; mouse, in vivo) [%] | increase in ultimate displacement ([1]; mouse, in vivo) [%] | osteoblast cell death [4] | intracellular levels of cAMP [5] | increase in acid phosphate content heterogeneity ([2]; 25 nmoles/kg/day) [%] | increase in collagen maturity heterogeneity ([2]; 25 nmoles/kg/day) [%] | increase in mean collagen maturity ([2]; 25 nmoles/kg/day) [%] |
| --- | --- | --- | --- | --- | --- | --- | --- | --- | --- | --- | --- | --- | --- |
| CC[C@H](C)[C@H](NC(=O)[C@H](CO)NC(=O)[C@H](Cc1ccccc1)NC(=O)[C@H](CC(=O)O)NC(=O)[C@H](CO)NC(=O)CNC(=O)[C@H](Cc1ccccc1)NC(=O)[C@H](CO)NC(=O)CNC(=O)[C@H](CCC(=O)O)NC(=O)CNC(=O)[C@@H](N)Cc1c[nH]cn1)C(=O)N[C@@H](C)C(=O)N[C@@H](CC(C)C)C(=O)N[C@@H](CC(=O)O)C(=O)N[C@@H](CCCCN)C(=O)N[C@@H](CC(C)C)C(=O)N[C@@H](C)C(=O)N[C@@H](C)C(=O)N[C@@H](CCCNC(=N)N)C(=O)N[C@@H](CC(=O)O)C(=O)N[C@@H](Cc1ccccc1)C(=O)N[C@H](C(=O)N[C@@H](CC(N)=O)C(=O)N[C@@H](Cc1c[nH]c2ccccc12)C(=O)N[C@@H](CC(C)C)C(=O)N[C@@H](CC(C)C)C(=O)N[C@@H](CCC(N)=O)C(=O)N[C@H](C(=O)N[C@@H](CCCCN)C(N)=O)[C@@H](C)O)C(C)C [GL-0007] | 33 | 62 | 33 | 18 |  |  |  |  |  |  |  |  |  |
| CC[C@H](C)[C@H](NC(=O)[C@H](CO)NC(=O)[C@H](CCSC)NC(=O)[C@H](CC(=O)O)NC(=O)[C@H](CO)NC(=O)CNC(=O)[C@H](Cc1ccccc1)NC(=O)[C@H](CO)NC(=O)CNC(=O)[C@H](CCC(=O)O)NC(=O)CNC(=O)[C@@H](N)Cc1c[nH]cn1)C(=O)N[C@@H](C)C(=O)N[C@@H](CC(C)C)C(=O)N[C@@H](CC(=O)O)C(=O)N[C@@H](CCCCN)C(=O)N[C@@H](CC(C)C)C(=O)N[C@@H](C)C(=O)N[C@@H](C)C(=O)N[C@@H](CCCNC(=N)N)C(=O)N[C@@H](CC(=O)O)C(=O)N[C@@H](Cc1ccccc1)C(=O)N[C@H](C(=O)N[C@@H](CC(N)=O)C(=O)N[C@@H](Cc1c[nH]c2ccccc12)C(=O)N[C@@H](CC(C)C)C(=O)N[C@@H](CC(C)C)C(=O)N[C@@H](CCC(N)=O)C(=O)N[C@H](C(=O)N[C@@H](CCCCN)C(=O)N[C@H](C(=O)N[C@H](C(=O)N[C@@H](CC(=O)O)C(=O)O)[C@@H](C)O)[C@@H](C)CC)[C@@H](C)O)C(C)C [GL-0001] |  |  |  |  | 0.0182 ± 0.0056 | 37 | 70 | 34 | does not induce cell death | increased intracellular levels of cAMP | 21 | 28 | 10 |
